# Results reported in patent US20260373138A1, “COMPOUNDS WITH ANTIFUNGAL PROPERTIES” (priority 2023, published 2026).
# Test system: A. fumigatus CEA10 reference strain
# Experiment: Fluconazole potentiator screen: MIC by CLSI microbroth dilution with and without fluconazole
# Type: cell-based, Aspergillus fumigatus
# Settings: for MIC: Aspergillus fumigatus, read-out: MIC (ug/mL) (−) Fluc; for MIC / MIC (ug/mL) (+) Fluc: 18 h; for MIC (ug/mL) (+) Fluc: with 32 μg/ml fluconazole, normoxia, GMM, 37 °C; for potency / potentiation of fluconazole (in words): structure-activity statements, fluconazole potentiator screen
Compound,MIC [µg/mL],MIC (ug/mL) (+) Fluc [µg/mL],potency / potentiation of fluconazole (in words),loss in potency compared to MBX-7591 (relative to MBX-7591) [fold]
O=C(c1ccccc1)N1CCC(Cc2ccc(COc3ccncc3)cc2)CC1 [MBX-7704],> 15,>15,–,–
O=C(c1ccc(Cl)cc1)N1CCC(Cc2ccc(COc3ccncc3)cc2)CC1 [MBX-7705],1.49,1.05,low potentiation effect,–
O=C(c1ccc(F)cc1)N1CCC(Cc2ccc(COc3ccncc3)cc2)CC1 [MBX-7706],1.01,8.09,antagonistic effect,–
Cc1ccc(C(=O)N2CCC(Cc3ccc(COc4ccncc4)cc3)CC2)cc1 [MBX-7707],1.18,0.59,comparable activity to MBX-7591,–
COc1ccc(C(=O)N2CCC(Cc3ccc(COc4ccncc4)cc3)CC2)cc1 [MBX-7728],8.3,8.30,–,–
O=C(c1ccccn1)N1CCC(Cc2ccc(COc3ccncc3)cc2)CC1 [MBX-7729],15,15.00,did not result in appreciable increase in potency,–
O=C(c1cccnc1)N1CCC(Cc2ccc(COc3ccncc3)cc2)CC1 [MBX-7730],15,7.70,did not result in appreciable increase in potency,–
O=C(c1ccncc1)N1CCC(Cc2ccc(COc3ccncc3)cc2)CC1 [MBX-7731],7.7,7.70,did not result in appreciable increase in potency,–
O=C(c1ccoc1)N1CCC(Cc2ccc(COc3ccncc3)cc2)CC1 [MBX-7732],5.32,1.88,–,4
O=C(c1ccccc1F)N1CCC(Cc2ccc(COc3ccncc3)cc2)CC1 [MBX-7769],11.4,8.09,–,–
O=C(c1cccc(F)c1)N1CCC(Cc2ccc(COc3ccncc3)cc2)CC1 [MBX-7770],8.09,8.09,–,–
COc1cccc(C(=O)N2CCC(Cc3ccc(COc4ccncc4)cc3)CC2)c1 [MBX-7771],11.8,16.70,–,–
O=C(c1ccc2c(c1)OCCO2)N1CCC(Cc2ccc(COc3ccncc3)cc2)CC1 [MBX-7772],12.6,12.60,–,–
Cn1ccc(C(=O)N2CCC(Cc3ccc(COc4ccncc4)cc3)CC2)c1 [MBX-7773],7.79,15.60,antagonistic potentiation effect with the fluconazole,–
O=C(c1cccc(O)c1)N1CCC(Cc2ccc(COc3ccncc3)cc2)CC1 [MBX-7801],> 16,>16,–,–
O=C(c1ccc(O)cc1)N1CCC(Cc2ccc(COc3ccncc3)cc2)CC1 [MBX-7802],> 16,>16,–,–
O=C(c1cccc(F)c1O)N1CCC(Cc2ccc(COc3ccncc3)cc2)CC1 [MBX-7803],> 16,>16,–,–
O=C(c1c[nH]cn1)N1CCC(Cc2ccc(COc3ccncc3)cc2)CC1 [MBX-7804],> 15,>15,not tolerated,–
O=C(Nc1ccsc1)N1CCC(Cc2ccc(COc3ccncc3)cc2)CC1 [MBX-7805],> 16,>16,–,–
c1cc(OCc2ccc(CC3CCN(Cc4ccsc4)CC3)cc2)ccn1 [MBX-7806],> 15,>15,–,–
CC(c1ccsc1)N1CCC(Cc2ccc(COc3ccncc3)cc2)CC1 (centres unmarked) [MBX-7821],> 15,>15,–,–

Compound,MIC [µg/mL],MIC (ug/mL) (+) Fluc [µg/mL],potency / potentiation of fluconazole (in words),loss in potency compared to MBX-7591 (relative to MBX-7591) [fold]
O=S(=O)(c1ccsc1)N1CCC(Cc2ccc(COc3ccncc3)cc2)CC1 [MBX-7822],> 6,1.07,"the only linker reasonably tolerated, apart from the amide",–
O=S(=O)(c1ccccc1)N1CCC2(CC1)CC(CCOc1ccncc1)CCO2 (centres unmarked) [MBX-7868],8.33,2.08,–,–
O=S(=O)(c1ccccc1F)N1CCC2(CC1)CC(CCOc1ccncc1)CCO2 (centres unmarked) [MBX-7869],> 17,3.07,–,–
Cc1cccc(S(=O)(=O)N2CCC3(CC2)CC(CCOc2ccncc2)CCO3)c1 (centres unmarked) [MBX-7870],> 17,6.09,–,–
O=S(=O)(c1ccc(F)cc1)N1CCC2(CC1)CC(CCOc1ccncc1)CCO2 (centres unmarked) [MBX-7871],8.69,1.09,–,–
O=S(=O)(c1cccc(Cl)c1)N1CCC2(CC1)CC(CCOc1ccncc1)CCO2 (centres unmarked) [MBX-7872],> 18,6.38,–,–
O=S(=O)(c1ccccn1)N1CCC2(CC1)CC(CCOc1ccncc1)CCO2 (centres unmarked) [MBX-7873],> 16,>16,–,–
O=S(=O)(c1cccnc1)N1CCC2(CC1)CC(CCOc1ccncc1)CCO2 (centres unmarked) [MBX-7874],> 16,>16,–,–
O=S(=O)(c1ccoc1)N1CCC2(CC1)CC(CCOc1ccncc1)CCO2 (centres unmarked) [MBX-7875],> 16,8.00,–,–
O=S(=O)(c1ccsc1)N1CCC2(CC1)CC(CCOc1ccncc1)CCO2 (centres unmarked) [MBX-7876],> 12,2.99,–,–
O=S(=O)(c1ccc(Cl)cc1)N1CCC2(CC1)CC(CCOc1ccncc1)CCO2 (centres unmarked) [MBX-7877],3.19,0.80,–,–
N#Cc1cccc(S(=O)(=O)N2CCC3(CC2)CC(CCOc2ccncc2)CCO3)c1 (centres unmarked) [MBX-7910],> 88,22.00,–,–
O=S(=O)(C1CC1)N1CCC2(CC1)CC(CCOc1ccncc1)CCO2 (centres unmarked) [MBX-7911],76.1,38.10,complete loss of activity,–
O=S(=O)(c1ccc(Cl)s1)N1CCC2(CC1)CC(CCOc1ccncc1)CCO2 (centres unmarked) [MBX-7912],0.36,0.18,the most potent,–
O=S(=O)(c1ccc(C(F)(F)F)nc1)N1CCC2(CC1)CC(CCOc1ccncc1)CCO2 (centres unmarked) [MBX-7913],2.41,0.96,the most potent,–
Cn1nccc1S(=O)(=O)N1CCC2(CC1)CC(CCOc1ccncc1)CCO2 (centres unmarked) [MBX-7914],8.34,3.31,–,–
O=S(=O)(C1CCC1)N1CCC2(CC1)CC(CCOc1ccncc1)CCO2 (centres unmarked) [MBX-7915],39.5,49.70,complete loss of activity,–
O=S(=O)(N1CCOCC1)N1CCC2(CC1)CC(CCOc1ccncc1)CCO2 (centres unmarked) [MBX-7950],26.8,13.40,complete loss of activity,–
CN1CCN(S(=O)(=O)N2CCC3(CC2)CC(CCOc2ccncc2)CCO3)CC1 (centres unmarked) [MBX-7951],> 87,>87,complete loss of activity,–
COc1cccc(S(=O)(=O)N2CCC3(CC2)CC(CCOc2ccncc2)CCO3)c1 (centres unmarked) [MBX-7952],11.2,2.79,–,–
